Measurements published in US8093288B2, “Genipin derivatives and uses thereof” (Beth Israel Deaconess Medical Center, priority 2003, dated 2012).

Tests used:
[1] = test system: pancreatic islets from wildtype mice; test: Insulin secretion in isolated pancreatic islets from wildtype mice; type: cell-based; conditions: 5.5 mM glucose; 50 nM, 0.5 μM and 5 μM genipin; 37° C. for 60 min; WT islets; FIG. 4 / FIG. 11B
Procedure: As used or herein, pancreatic islets from wildtype and UCP2 knockout mice were isolated according to a method used for rats (Cawthorn and Chan, Mol. Cell. Endocrinol. 1991, 75:197-204, the entire teachings of which are incorporated herein by reference), except that the total exposure to type XI collagenase (Worthington Biochemical Co., NJ) was 30 min. and the Ficoll gradient was altered to layers of 25%, 23%, 21%, and 11%. Islets were harvested from the 11%-21% interface.
Islets were cultured in RPMI medium containing 11.0 mM glucose and supplemented with 1% penicillin-streptomycin. 7.5% fetal bovine serum (all from Gibco/BRL, Burlington, ON), and 10 mM Hepes (Sigma). After culturing for 20-24 hr, the islets were transferred to microcentrifuge tubes, pelleted (800 g for 5 min), and the medium aspirated and replaced with 1.0 mL DME medium containing 1% gelatin and 5.5 mM glucose with no genipin (control), 50 nM genipin, 0.5 μM genipin, and 5 μM genipin. For insulin secretion studies, the three islets were incubated per tube. After incubation at 37° C. for 60 min., the islets were centrifuged. The supernatant was collected and stored at −80° C., and then later assayed for insulin using Rat Insulin ELISA Kit (Cat. No. INSKR020, Crystal Chem., Inc., Chicago, Ill.).
FIGS. 11B and 11C show their effects on insulin secretion. Pancreatic islets were isolated from WT or UCP2 knockout (KO) mice. […]

UCP2 KO islets = test: Glucose-stimulated insulin secretion in UCP2 KO islets after chronic hyperglycemia; type: cell-based, mice; conditions: UCP2 KO islets after 72 hours at 25 mM glucose; 5 μM genipin; FIG. 12B
Procedure: Pancreatic islets were isolated from WT (FIG. 12A) or UCP2 KO mice (FIG. 12B) and subjected to chronic incubations at low (5.5 mM) and high glucose (25 mM). In a separate experiment, islets were isolated from ob/ob mice (FIG. 12C). Islets were incubated for a total of 72 hours and washed, and then insulin-secretion studies were performed using three different concentrations of glucose (5.5, 12.5, and 25 mM) with or without 5 μM genipin. Results are means±SEM of four independent experiments (FIGS. 12A and 12B) or eight to twenty repeats of one representative experiment (FIG. 12C). WT islets that were chronically incubated at low glucose released increasing amounts of insulin in response to increasing concentrations of glucose (FIG. 12A, left panel). Following chronic hyperglycemia, islets increased basal insulin release, but were completely unresponsive to glucose stimulation (FIG. 12A, middle panel). […] To assess the role of genipin in hyperglycemia-induced loss of glucose responsiveness, genipin was acutely added into islets during the insulin-release phase of the study. […] To see whether this effect of genipin is mediated by UCP2, islets were isolated from UCP2 KO mice and then incubated in chronic hyperglycemia. […]

UCP2 KO mice = test: Serum insulin in vivo after genipin injection in UCP2 KO mice; conditions: genipin 10 mg/kg injected, FIGS. 13A, 13B
Procedure: UCP2-deficient mice have increased serum insulin levels. Genipin inhibits UCP2 activity, and thus should stimulate insulin secretion acutely in vivo. In the present study, the effect of genipin on insulin secretion in vivo was assessed. WT and UCP2 KO mice were fed a chow diet (FIG. 13A), or placed on a high fat diet (HFD) (FIG. 13B) (#D12331, obtained from Research Diets Inc., New Brunswick, N.J.). The fat source was coconut oil and comprised 58% of the total calories. The mice remained on the HFD for 24 weeks. Both WT and KO mice were obese (50-60 g). ob/ob mice (FIG. 13C) were obtained from The Jackson Laboratory. After 6 hours (FIG. 13A) or 20 hours (FIGS. 13B and 13C) of fasting, genipin (10 mg/kg (FIGS. 13A and 13B), or 20 mg/kg (FIG. 13C)) was injected into the mice. Serum insulin levels were measured before and after administration of genipin as indicated.

COC(=O)C1=CO[C@@H](O)[C@@H]2C(CO)=CC[C@H]12 [genipin]
insulin secretion [1]: increases insulin secretion in a dose-dependent manner
glucose-stimulated insulin secretion (GSIS) (UCP2 KO islets): no additional beneficial effect on GSIS
serum insulin levels (UCP2 KO mice): no effect on insulin levels
